Read-outs that look alike come from different tables or passages of the source.
Tests used:
hTRPV1 = biological target: T1, hTRPV1 (Homo sapiens, UniProt Q8NER1); assay: Ion channel selectivity patch clamp; assay type: cell-based
T1 construct: The cDNAs for various full-length ion channels were subcloned into pcDNA5/TO; expressed in transfected cells; host or cells: T-REx-293 (general cell paragraph)

Nav1.5 = biological target: T2, Nav1.5 (Homo sapiens, UniProt Q14524); assay: Ion channel selectivity patch clamp; assay type: cell-based
T2 construct: The cDNAs for various full-length ion channels were subcloned into pcDNA5/TO; expressed in transfected cells

CB1 (h) = biological target: T3, CB1 (h) (Homo sapiens, UniProt P21554); assay type: binding; details: 1.0E-06 M
T3 construct: host or cells: CHO cells

D1 (h) = biological target: T4, D1 (h) (Homo sapiens, UniProt P21728); assay type: binding
T4 construct: host or cells: CHO cells

D4.4 (h) = biological target: T5, D4.4 (h) (Homo sapiens, UniProt P21917); assay: biochemical; assay type: binding; details: 1.0E-06 M
T5 sequence (P21917 1-419): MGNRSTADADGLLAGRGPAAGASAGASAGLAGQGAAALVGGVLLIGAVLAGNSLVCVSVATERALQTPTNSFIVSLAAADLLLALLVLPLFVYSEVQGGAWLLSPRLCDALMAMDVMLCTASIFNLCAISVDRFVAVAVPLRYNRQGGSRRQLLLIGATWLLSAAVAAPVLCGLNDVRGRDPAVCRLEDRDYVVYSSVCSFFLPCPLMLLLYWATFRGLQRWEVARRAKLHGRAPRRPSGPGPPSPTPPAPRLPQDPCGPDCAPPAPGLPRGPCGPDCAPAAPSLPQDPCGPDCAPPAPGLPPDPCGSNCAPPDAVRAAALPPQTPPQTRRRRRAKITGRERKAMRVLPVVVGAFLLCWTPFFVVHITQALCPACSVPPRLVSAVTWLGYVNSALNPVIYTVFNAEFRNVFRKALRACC

MT3 (ML2) = biological target: T6, MT3 (ML2) (Mesocricetus auratus, UniProt A0ABM2YAB8); assay type: binding, hamster
T6 construct: tissue Cerep; host or cells: hamster brain
T6 sequence (A0ABM2YAB8 1-231): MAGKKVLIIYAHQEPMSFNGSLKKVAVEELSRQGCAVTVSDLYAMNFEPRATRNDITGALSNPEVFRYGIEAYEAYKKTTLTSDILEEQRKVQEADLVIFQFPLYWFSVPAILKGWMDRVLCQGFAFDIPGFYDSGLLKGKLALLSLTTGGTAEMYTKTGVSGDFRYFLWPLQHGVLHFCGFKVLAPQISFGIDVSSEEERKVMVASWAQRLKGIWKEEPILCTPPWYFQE

MAO-A = biological target: T7, MAO-A (Rattus norvegicus, UniProt P21396); assay type: binding; details: 1 h, 1.0E-06 M
T7 construct: tissue Cerep; host or cells: rat cerebral cortex
T7 sequence (P21396 1-526): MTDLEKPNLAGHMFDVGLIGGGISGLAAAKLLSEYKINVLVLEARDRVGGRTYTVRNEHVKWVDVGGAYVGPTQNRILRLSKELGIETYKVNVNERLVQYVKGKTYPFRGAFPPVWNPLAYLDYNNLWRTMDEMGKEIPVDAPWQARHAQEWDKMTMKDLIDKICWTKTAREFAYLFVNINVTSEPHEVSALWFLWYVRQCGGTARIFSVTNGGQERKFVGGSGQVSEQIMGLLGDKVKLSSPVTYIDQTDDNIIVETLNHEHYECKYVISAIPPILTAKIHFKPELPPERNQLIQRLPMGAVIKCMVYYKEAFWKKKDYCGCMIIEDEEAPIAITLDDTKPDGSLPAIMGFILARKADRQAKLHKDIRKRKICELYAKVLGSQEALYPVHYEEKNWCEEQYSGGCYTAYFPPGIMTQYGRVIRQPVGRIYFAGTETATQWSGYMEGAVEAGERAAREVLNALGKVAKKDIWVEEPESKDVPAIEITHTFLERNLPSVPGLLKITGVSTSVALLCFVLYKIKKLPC

δ2 (DOP) (h) = biological target: T8, δ2 (DOP) (h) (Homo sapiens, UniProt P41143); assay type: binding; details: 1.0E-06 M
T8 construct: host or cells: CHO cells

5-HT1A (h) = biological target: T9, 5-HT1A (h) (Homo sapiens, UniProt P08908); assay type: binding; details: 1.0E-06 M
T9 construct: host or cells: HEK-293 cells
T9 sequence (P08908 1-422): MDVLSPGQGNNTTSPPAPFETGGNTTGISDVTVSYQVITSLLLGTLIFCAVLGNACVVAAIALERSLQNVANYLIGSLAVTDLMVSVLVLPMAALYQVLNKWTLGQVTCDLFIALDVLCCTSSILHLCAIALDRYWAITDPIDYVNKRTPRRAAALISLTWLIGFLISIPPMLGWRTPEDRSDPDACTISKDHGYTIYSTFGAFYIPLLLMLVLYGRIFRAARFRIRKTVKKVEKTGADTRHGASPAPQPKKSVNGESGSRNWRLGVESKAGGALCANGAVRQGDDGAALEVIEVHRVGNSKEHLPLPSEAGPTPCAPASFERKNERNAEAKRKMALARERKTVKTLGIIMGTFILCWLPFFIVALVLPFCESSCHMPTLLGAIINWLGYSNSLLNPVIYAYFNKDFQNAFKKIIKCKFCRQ

[1] = biological target: T10, norepinephrine transporter (h) (Homo sapiens, UniProt P23975); assay type: binding
T10 construct: host or cells: CHO cells

dopamine transporter (h) = biological target: T11, dopamine transporter (h) (Homo sapiens, UniProt Q01959); assay type: binding; details: 1.0E-06 M
T11 construct: host or cells: CHO cells

5-HT transporter (h) = biological target: T12, 5-HT transporter (h) (Homo sapiens, UniProt P31645); assay type: binding; details: 1 h
T12 construct: host or cells: CHO cells

D2S (h) = D2S (h) (Homo sapiens, UniProt P14416); assay type: binding; design: host or cells: HEK-293 cells; details: 1.0E-06 M
Cav1.2 = Cav1.2 (Homo sapiens, UniProt Q13936); assay: Ion channel selectivity patch clamp

T12 sequence (P31645 whole entry): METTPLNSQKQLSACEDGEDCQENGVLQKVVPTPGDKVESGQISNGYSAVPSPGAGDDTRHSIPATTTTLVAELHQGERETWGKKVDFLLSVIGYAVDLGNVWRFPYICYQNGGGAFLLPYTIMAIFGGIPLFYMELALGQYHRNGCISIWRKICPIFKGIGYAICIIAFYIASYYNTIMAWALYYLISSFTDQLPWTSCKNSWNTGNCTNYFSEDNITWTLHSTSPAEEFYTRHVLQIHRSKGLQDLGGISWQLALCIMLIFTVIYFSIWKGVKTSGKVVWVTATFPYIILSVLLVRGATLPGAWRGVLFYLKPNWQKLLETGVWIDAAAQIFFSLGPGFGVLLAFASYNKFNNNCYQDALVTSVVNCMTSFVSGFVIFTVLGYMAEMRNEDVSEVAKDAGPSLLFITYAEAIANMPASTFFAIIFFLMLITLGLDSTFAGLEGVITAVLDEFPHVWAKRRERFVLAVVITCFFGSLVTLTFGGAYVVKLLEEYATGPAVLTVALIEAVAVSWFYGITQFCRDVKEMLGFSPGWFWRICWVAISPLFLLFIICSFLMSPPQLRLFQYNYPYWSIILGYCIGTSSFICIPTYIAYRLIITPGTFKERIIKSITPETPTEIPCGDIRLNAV
T3 sequence (P21554 whole entry): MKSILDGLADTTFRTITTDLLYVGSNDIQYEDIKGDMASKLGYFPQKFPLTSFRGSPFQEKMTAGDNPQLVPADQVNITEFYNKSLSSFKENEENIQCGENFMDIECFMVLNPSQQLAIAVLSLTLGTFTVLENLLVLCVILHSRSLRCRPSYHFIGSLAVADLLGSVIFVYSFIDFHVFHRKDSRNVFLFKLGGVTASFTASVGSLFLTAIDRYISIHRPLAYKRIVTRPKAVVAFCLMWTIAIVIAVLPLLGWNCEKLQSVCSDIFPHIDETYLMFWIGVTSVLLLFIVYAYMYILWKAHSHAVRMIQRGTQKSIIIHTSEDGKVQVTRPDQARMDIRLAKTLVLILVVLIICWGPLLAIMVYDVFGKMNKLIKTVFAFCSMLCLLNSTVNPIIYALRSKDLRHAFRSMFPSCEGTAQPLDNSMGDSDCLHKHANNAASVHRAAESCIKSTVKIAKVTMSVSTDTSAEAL
T11 sequence (Q01959 whole entry): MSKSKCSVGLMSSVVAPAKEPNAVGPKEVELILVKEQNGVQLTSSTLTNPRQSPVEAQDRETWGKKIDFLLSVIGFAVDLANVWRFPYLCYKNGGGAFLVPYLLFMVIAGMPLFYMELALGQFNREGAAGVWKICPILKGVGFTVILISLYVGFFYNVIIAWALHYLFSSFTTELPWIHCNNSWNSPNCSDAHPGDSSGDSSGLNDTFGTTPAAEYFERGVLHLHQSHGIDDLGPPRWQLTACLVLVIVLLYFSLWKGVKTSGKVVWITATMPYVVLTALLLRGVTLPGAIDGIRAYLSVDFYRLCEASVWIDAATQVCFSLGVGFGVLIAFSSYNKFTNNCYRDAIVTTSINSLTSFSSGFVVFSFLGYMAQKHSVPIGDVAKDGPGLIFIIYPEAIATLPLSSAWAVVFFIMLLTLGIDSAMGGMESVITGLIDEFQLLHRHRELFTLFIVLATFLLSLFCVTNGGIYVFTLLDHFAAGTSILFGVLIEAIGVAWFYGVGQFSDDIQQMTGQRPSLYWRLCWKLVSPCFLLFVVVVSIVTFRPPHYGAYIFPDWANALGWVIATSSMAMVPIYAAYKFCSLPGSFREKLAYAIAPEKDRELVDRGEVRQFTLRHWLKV
Chain of D2S (h) (P14416 1-414 isoform P14416-2): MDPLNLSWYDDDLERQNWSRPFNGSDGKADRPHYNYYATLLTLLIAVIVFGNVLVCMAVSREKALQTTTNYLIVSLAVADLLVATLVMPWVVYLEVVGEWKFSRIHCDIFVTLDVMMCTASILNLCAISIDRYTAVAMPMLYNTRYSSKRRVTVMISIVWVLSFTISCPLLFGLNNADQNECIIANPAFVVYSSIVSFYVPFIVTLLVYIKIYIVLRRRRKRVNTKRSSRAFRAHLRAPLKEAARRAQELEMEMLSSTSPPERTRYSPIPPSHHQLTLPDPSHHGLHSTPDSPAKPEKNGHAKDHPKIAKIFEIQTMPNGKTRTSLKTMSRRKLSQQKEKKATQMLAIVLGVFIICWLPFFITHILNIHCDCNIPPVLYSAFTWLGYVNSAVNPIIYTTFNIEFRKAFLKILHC
T10 sequence (P23975 whole entry): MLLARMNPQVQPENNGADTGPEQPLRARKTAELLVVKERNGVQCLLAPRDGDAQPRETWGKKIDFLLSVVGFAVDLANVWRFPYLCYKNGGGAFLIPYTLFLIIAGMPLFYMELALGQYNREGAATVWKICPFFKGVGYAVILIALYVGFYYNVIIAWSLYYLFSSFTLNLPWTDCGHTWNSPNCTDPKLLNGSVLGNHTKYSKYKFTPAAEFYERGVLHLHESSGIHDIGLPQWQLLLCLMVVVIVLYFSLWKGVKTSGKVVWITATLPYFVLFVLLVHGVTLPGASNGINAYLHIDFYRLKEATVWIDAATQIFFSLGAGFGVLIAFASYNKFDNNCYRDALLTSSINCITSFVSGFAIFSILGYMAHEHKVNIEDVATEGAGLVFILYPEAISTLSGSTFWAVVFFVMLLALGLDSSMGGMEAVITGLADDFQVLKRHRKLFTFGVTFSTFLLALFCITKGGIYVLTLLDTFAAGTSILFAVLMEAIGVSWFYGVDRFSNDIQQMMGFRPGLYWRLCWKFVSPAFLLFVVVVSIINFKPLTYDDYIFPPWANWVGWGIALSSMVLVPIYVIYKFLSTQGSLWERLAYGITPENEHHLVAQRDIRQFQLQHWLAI
T4 sequence (P21728 whole entry): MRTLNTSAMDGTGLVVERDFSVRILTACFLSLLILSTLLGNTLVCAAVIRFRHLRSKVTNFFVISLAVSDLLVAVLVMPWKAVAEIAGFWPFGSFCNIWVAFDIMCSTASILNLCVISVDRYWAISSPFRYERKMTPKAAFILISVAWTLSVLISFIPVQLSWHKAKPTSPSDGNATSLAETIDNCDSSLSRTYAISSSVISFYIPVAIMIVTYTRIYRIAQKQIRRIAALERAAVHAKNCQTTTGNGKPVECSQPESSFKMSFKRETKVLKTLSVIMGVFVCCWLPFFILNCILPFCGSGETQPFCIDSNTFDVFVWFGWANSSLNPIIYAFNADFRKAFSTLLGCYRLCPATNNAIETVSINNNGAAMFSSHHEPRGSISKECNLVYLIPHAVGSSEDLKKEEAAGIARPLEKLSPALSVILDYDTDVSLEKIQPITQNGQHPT
T8 sequence (P41143 whole entry): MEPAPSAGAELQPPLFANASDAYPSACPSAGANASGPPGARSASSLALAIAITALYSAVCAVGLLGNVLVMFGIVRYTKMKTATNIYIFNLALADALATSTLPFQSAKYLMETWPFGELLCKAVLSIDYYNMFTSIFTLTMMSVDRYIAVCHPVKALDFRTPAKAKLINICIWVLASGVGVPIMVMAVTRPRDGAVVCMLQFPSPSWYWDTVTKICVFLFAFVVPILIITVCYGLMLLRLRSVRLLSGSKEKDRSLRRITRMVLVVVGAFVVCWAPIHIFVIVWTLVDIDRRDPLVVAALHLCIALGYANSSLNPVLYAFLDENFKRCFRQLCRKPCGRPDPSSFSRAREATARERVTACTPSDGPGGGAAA
T1 sequence (Q8NER1 whole entry): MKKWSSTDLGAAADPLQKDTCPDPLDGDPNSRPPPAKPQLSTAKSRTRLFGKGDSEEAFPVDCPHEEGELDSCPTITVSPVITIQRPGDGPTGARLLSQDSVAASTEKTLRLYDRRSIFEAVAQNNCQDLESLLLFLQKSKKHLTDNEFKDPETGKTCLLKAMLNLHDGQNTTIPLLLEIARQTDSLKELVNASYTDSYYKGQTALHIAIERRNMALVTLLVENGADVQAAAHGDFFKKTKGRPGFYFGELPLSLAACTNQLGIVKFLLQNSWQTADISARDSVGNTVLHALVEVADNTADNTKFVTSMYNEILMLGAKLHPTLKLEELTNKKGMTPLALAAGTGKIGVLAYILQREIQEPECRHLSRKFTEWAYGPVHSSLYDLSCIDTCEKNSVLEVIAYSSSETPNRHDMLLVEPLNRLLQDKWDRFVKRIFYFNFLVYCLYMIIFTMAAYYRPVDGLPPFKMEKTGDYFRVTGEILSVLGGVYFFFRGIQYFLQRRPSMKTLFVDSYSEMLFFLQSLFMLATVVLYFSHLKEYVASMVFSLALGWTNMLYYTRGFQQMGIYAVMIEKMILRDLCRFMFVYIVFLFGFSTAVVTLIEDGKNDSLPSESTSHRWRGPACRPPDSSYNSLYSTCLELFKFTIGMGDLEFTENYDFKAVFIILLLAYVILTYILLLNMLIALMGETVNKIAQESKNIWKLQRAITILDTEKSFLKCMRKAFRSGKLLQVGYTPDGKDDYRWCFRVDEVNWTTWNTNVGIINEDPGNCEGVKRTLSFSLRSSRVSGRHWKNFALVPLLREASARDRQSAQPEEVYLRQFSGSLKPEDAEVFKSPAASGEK

SMILES | IC50 (Nav1.5) | inhibition at 1 µM (CB1 (h); read-out: % Inhibition 1st) | inhibition at 1 µM (CB1 (h); read-out: % Inhibition 2nd) | inhibition at 1 µM (CB1 (h); read-out: % Inhibition Mean) | inhibition at 1 µM (D1 (h); read-out: % Inhibition 1st) | inhibition at 1 µM (D1 (h); read-out: % Inhibition 2nd) | inhibition at 1 µM (D1 (h); read-out: % Inhibition Mean) | inhibition at 1 µM (D4.4 (h); read-out: % Inhibition 1st) | inhibition at 1 µM (D4.4 (h); read-out: % Inhibition 2nd) | inhibition at 1 µM (D4.4 (h); read-out: % Inhibition Mean) | inhibition at 1 µM (MT3 (ML2); read-out: % Inhibition 1st) | inhibition at 1 µM (MT3 (ML2); read-out: % Inhibition 2nd) | inhibition at 1 µM (MT3 (ML2); read-out: % Inhibition Mean) | inhibition at 1 µM (MAO-A; read-out: % Inhibition 1st) | inhibition at 1 µM (MAO-A; read-out: % Inhibition 2nd) | inhibition at 1 µM (MAO-A; read-out: % Inhibition Mean) | inhibition at 1 µM (δ2 (DOP) (h); read-out: % Inhibition 1st) | inhibition at 1 µM (δ2 (DOP) (h); read-out: % Inhibition 2nd) | inhibition at 1 µM (δ2 (DOP) (h); read-out: % Inhibition Mean) | inhibition at 1 µM (5-HT1A (h); read-out: % Inhibition 1st) | other results
Cn1c(=O)n(CCCO)c(=O)c2c1nc(Oc1cccc(Cl)c1)n2Cc1ccc(Cl)cc1 [HC-070] | > 1.9 µM | 8.4% | 18.8% | 13.6% | 3% | -4.8% | -0.9% | -15.8% | -1.8% | -8.8% | 46.1% | 49.5% | 47.8% | 12.6% | 13.1% | 12.8% | 6.8% | 5.9% | 6.3% | 8.7% | IC50 (hTRPV1; 500 nM Capsaicin, read-out: IC50): > 1.9 µM; inhibition at 1 µM (5-HT1A (h); read-out: % Inhibition 2nd): -24.2%; inhibition at 1 µM (5-HT1A (h); read-out: % Inhibition Mean): -7.7%; inhibition at 1 µM ([1]; read-out: % Inhibition 1st): -10.1%; inhibition at 1 µM ([1]; read-out: % Inhibition 2nd): -0.6%; inhibition at 1 µM ([1]; read-out: % Inhibition Mean): -5.4%; inhibition at 1 µM (dopamine transporter (h); read-out: % Inhibition 1st): 8.9%; inhibition at 1 µM (dopamine transporter (h); read-out: % Inhibition 2nd): 8.6%; inhibition at 1 µM (dopamine transporter (h); read-out: % Inhibition Mean): 8.8%; inhibition at 1 µM (5-HT transporter (h); read-out: % Inhibition 1st): -0.3%; inhibition at 1 µM (5-HT transporter (h); read-out: % Inhibition 2nd): 18.4%; inhibition at 1 µM (5-HT transporter (h); read-out: % Inhibition Mean): 9.1%; inhibition at 1 µM (D2S (h); read-out: % Inhibition 1st): -3%; inhibition at 1 µM (D2S (h); read-out: % Inhibition 2nd): 3.4%; inhibition at 1 µM (D2S (h); read-out: % Inhibition Mean): 0.2%; IC50 (Cav1.2): > 1.9 µM
Cn1c(=O)n(CCCO)c(=O)c2c1nc(Oc1cccc(OC(F)(F)F)c1)n2Cc1ccc(Cl)cc1 [HC-608] | > 1.64 µM | 27% | 25.5% | 26.2% | 1.1% | 5% | 3.1% | -20.4% | 3.4% | -8.5% | -0.7% | 1.2% | 0.2% | -3.8% | 3.6% | -0.1% | -10.8% | 3.1% | -3.9% | -0.2% | IC50 (hTRPV1): > 1.64 µM; inhibition at 1 µM (5-HT1A (h); read-out: % Inhibition 2nd): 14.8%; inhibition at 1 µM (5-HT1A (h); read-out: % Inhibition Mean): 7.3%; inhibition at 1 µM ([1]; read-out: % Inhibition 1st): 4.8%; inhibition at 1 µM ([1]; read-out: % Inhibition 2nd): 18.1%; inhibition at 1 µM ([1]; read-out: % Inhibition Mean): 11.5%; inhibition at 1 µM (dopamine transporter (h); read-out: % Inhibition 1st): 22.8%; inhibition at 1 µM (dopamine transporter (h); read-out: % Inhibition 2nd): 37.1%; inhibition at 1 µM (dopamine transporter (h); read-out: % Inhibition Mean): 29.9%; inhibition at 1 µM (5-HT transporter (h); read-out: % Inhibition 1st): -6.2%; inhibition at 1 µM (5-HT transporter (h); read-out: % Inhibition 2nd): 4.6%; inhibition at 1 µM (5-HT transporter (h); read-out: % Inhibition Mean): -0.8%; inhibition at 1 µM (D2S (h); read-out: % Inhibition 1st): 4.6%; inhibition at 1 µM (D2S (h); read-out: % Inhibition 2nd): 0.2%; inhibition at 1 µM (D2S (h); read-out: % Inhibition Mean): 2.4%; IC50 (Cav1.2): > 1.64 µM
